This is an account of results in PubChem BioAssay (NCI).

SMILES strings stand for the structures.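 Grown in 96-well plates, cells were treated for 48 hours with each compound at five concentrations. Insufficient inhibition: endpoint recorded as highest concentration tested. At the GI50, growth is halved. TGI: total growth inhibition.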 Where only a bound is given, the exact number is not on record here.

Common to all, as to assay: growth of human tumour cells (NCI), 48 h
Assay [1] deals with SF-539 CNS.
In assay [2] the test system is NCI-H226 lung.
Assay [3] relates to SNB-19 CNS.
Assay [4] has as its system HCT-15 colon.
The subject of assay [5] is HT29 colon.
Assay [6] deals with DU-145 prostate.
The subject of assay [7] is SNB-75 CNS.
Assay [8] deals with MDA-MB-231 breast.
For assay [9], the system named is TK-10 renal.
For assay [10], the system named is OVCAR-4 ovarian.
For assay [11], the system named is ACHN renal.
Assay [12] has as its system SF-295 CNS.
Assay [13] deals with SN12C renal.
Assay [14] relates to A498 renal.
Assay [15] deals with HOP-62 NSCLC.
Assay [16] deals with HL-60(TB) leukemia.

In the case of `C[C@H](NC(=O)c1ccc(CNC(=O)/C=C/c2cccc(Oc3ccccc3)c2)cc1)c1ccccc1`, the TGI is 67.8 µM in [1]; greater than 100 µM in assay [2]; greater than 100 µM in [3]; greater than 100 µM in assay [4]; greater than 100 µM in assay [5]; greater than 100 µM in assay [6]. Further, the TGI in [7] was 44.2 µM; in assay [8], greater than 100 µM; in [9], greater than 100 µM; in [10] it was greater than 100 µM; in assay [11], greater than 100 µM; in assay [12], greater than 100 µM. In addition, the TGI in assay [13], in assay [14] and in [15] was greater than 100 µM each time.
On to `O=S(Nc1ccccc1)c1cccc(Cl)c1` (centres undefined), for which the TGI in assay [1] was 77.6 µM; in assay [2], greater than 100 µM; in assay [3] it was greater than 100 µM; in [4] it was greater than 100 µM; in [5], greater than 100 µM; in assay [6], greater than 100 µM. Also, the TGI in assay [16], in assay [7], in assay [8], in assay [9], in [11] and in assay [12] was greater than 100 µM throughout. Also, the TGI in [13] and in assay [15] was greater than 100 µM in each case.
In the case of `COc1ccc(CNC(=O)NCn2cc(-c3ccccc3)nn2)cc1`, the TGI in assay [1], in assay [3], in assay [4], in assay [5], in assay [6] and in [16] was greater than 100 µM each time. Moreover, the TGI in [7], in assay [8], in assay [9], in assay [10], in assay [11] and in assay [12] was greater than 100 µM in each case. Besides, the TGI in assay [13] and in [15] was greater than 100 µM throughout.
Regarding `CCSc1n/c(=C\c2ccco2)c2nncn12`, the TGI in assay [2], in assay [3], in [4], in [5], in [6] and in [16] was greater than 100 µM in each case. Besides, the TGI in assay [7], in [8], in assay [9], in assay [11], in assay [12] and in [13] was greater than 100 µM in each case. Moreover, the TGI in assay [15] is greater than 100 µM.
Turning to `CC(C)C1=CC23CCC4C(C)(C(=O)O)CCCC4(C)C2CC1C1C(=O)N(c2ccccc2N2C(=O)C4C5CC6C7(C)CCCC(C)(C(=O)O)C7CCC6(C=C5C(C)C)C4C2=O)C(=O)C13` (centres undefined), the TGI came out at 12.5 µM in [1]; 30.2 µM in assay [2]; 16 µM in assay [3]; 29.8 µM in assay [4]; 10.6 µM in [5]; 21.8 µM in assay [6]. Further, the TGI in assay [8] came to 32.3 µM; in assay [9], 27.3 µM; in assay [10], 38.8 µM; in [11], 21.8 µM; in [13], 24.8 µM; in [14], 13.6 µM. In assay [15], this compound displayed a TGI of 18.9 µM.
For `COc1cccc([C@H]2C/C(=N\NC(=O)C(=O)N[C@@H](C)c3ccccc3)c3ccccc3N2)c1`, the GI50 in assay [1] is 0.0208 µM; in assay [3], 0.0259 µM; in assay [10], 45.3 µM; in [15], 0.0835 µM. Moreover, the TGI in assay [1] was 21.3 µM; in [2] it was 3.03 µM; in assay [3] it was greater than 100 µM; in [4], greater than 100 µM; in assay [6], 15.6 µM; in assay [8], 41.4 µM. Besides, the TGI is greater than 100 µM in assay [9]; greater than 100 µM in assay [10]; greater than 100 µM in assay [11]; greater than 100 µM in assay [12]; 0.0898 µM in assay [13]; greater than 100 µM in assay [14].
Turning to `CC(C)(C)OC(=O)N1CCC(C(=O)O)CC1`, the TGI in assay [1], in assay [3], in [4], in assay [5], in [6] and in assay [16] was greater than 100 µM each time. The TGI in assay [7], in [8], in assay [9], in [10], in assay [11] and in assay [12] was greater than 100 µM in each case. Moreover, the TGI in [13], in assay [14] and in [15] was greater than 100 µM throughout.
Regarding `CN(C)CCN(C)c1ccc2c(=O)n(CCN(C)C)c(=O)n3c4ccccc4c(=O)c1c23`, the TGI turned out to be 2.15 µM in assay [1]; 1.59 µM in assay [2]; 9.7 µM in assay [3]; 10.8 µM in assay [4]; 3.73 µM in assay [5]; 1.3 µM in [6]. Besides, the TGI in assay [7] turned out to be 3.5 µM; in assay [8], 4.23 µM; in assay [9], 5.43 µM; in [10], 2.27 µM; in [11] it was 0.849 µM; in assay [12], 8.38 µM. In addition, the TGI in assay [13] is 2.64 µM; in assay [14], 5.36 µM; in [15], 1.47 µM.
`Cc1ccc(/C=C/c2nnc(N/N=C/c3ccc4c(c3)OCO4)[nH]c2=O)cc1`: the TGI is 42.4 µM in assay [1]; 72.5 µM in [2]; 37.4 µM in [3]; greater than 100 µM in [4]; 53.7 µM in assay [5]; 38.7 µM in [6]. Moreover, the TGI in [7] was 31.2 µM; in assay [8], 29.9 µM; in [9], 58.6 µM; in assay [10] it was 36.8 µM; in assay [11], 65.6 µM; in assay [12] it was greater than 100 µM. Further, the values for the TGI in assay [13] and in [15] were 38.1 µM and 33.7 µM, respectively.
